Here are results for 2 molecules from ChEMBL document CHEMBL4419169, “Novel Ferroportin Inhibitors” (2018).

Assay [1] has as its system Mus musculus. Kind of assay: Disease modifying capacity in mouse model of transfusion-independent beta-thalassemia intermedia assessed as increase in blood erythrocyte counts at 20 mg/kg, po BID for 46 days relative to control. The format is functional.
Assay [2] concerns the target T1, Ferroportin (Mus musculus) (UniProt Q9JHI9).
T1 sequence (whole entry): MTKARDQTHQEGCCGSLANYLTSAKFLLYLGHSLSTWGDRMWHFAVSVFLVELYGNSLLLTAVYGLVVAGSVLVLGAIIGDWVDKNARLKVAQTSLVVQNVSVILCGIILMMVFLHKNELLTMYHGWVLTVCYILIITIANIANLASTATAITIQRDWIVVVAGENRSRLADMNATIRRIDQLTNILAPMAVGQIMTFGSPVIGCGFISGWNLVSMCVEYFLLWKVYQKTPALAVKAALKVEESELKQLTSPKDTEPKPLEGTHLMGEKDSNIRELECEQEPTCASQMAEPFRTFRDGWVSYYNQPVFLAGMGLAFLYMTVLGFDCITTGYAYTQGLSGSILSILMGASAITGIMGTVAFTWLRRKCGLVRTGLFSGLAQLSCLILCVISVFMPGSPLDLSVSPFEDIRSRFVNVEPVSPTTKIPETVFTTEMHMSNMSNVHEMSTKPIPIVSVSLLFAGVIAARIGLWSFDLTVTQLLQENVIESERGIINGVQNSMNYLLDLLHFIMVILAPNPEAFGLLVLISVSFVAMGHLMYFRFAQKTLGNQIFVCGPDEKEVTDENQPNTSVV
As to the kind of experiment: Inhibition of ferroportin in mouse J774 cells assessed as induce ferroportin ubiquitination and degradation at […] incubated for 120 mins by immunoprecipitation assay. The assay is classed as cell-based.

Assay [3] concerns Mus musculus. Kind of assay: Disease modifying capacity in mouse model of transfusion-independent beta-thalassemia intermedia assessed as prevention of liver [58Fe] loading at 20 mg/kg, po BID for 46 days relative to control. The format is functional.
Assay [4] relates to Rattus norvegicus. Kind of assay: Prevention of iron absorption in anemic Wistar rat model of iron absorption assessed as inhibition of increase in serum iron at 10 mg/kg, po pre-dosed 1 hr before ferrous sulfate dosing and measured 3 hours after iron dosing. The assay is classed as functional.
Assay [5] concerns Mus musculus. As to the kind of experiment: Disease modifying capacity in mouse model of transfusion-independent beta-thalassemia intermedia assessed as decrease in relative spleen weight at 60 mg/kg, po BID for 46 days relative to control. The format is functional. The arrangement: scale not given: the % may be the effect or the level left.
Assay [6] relates to Mus musculus. Kind of assay: Disease modifying capacity in mouse model of transfusion-independent beta-thalassemia intermedia assessed as decrease in blood reticulocyte counts at 20 mg/kg, po BID for 46 days relative to control. The format is functional. The arrangement: scale not given: the % may be the effect or the level left.
The subject of assay [7] is Mus musculus. As to the kind of experiment: Induction of hypoferremia in wild type C57BL/6 mouse assessed as decrease in serum iron levels at 30 mg/kg, po measured after 3 hrs post dose. The format is functional. More on the design: scale not given: the % may be the effect or the level left.
The subject of assay [8] is Mus musculus. Kind of assay: Prevention of iron overload in beta2-microglobulin deficient male mouse assessed as reduction in [58Fe] liver iron accumulation at 60 mg/kg, po BID pre-dosed followed by exposure to iron-containing water and same regime was repeated for 14 days relative to control. The arrangement: scale not given: the % may be the effect or the level left. The assay is classed as functional.

In assay [9] the test system is Mus musculus. Kind of assay: Prevention of hyperferremia in iron overloaded beta2-microglobulin deficient male mouse assessed as reduction in serum iron level at 60 mg/kg, po measured after 1 hr relative to control. More on the design: scale not given: the % may be the effect or the level left. The assay is classed as functional.
For assay [10], the system named is Mus musculus. As to the kind of experiment: Disease modifying capacity in mouse model of transfusion-independent beta-thalassemia intermedia assessed as prevention of liver [58Fe] loading at 60 mg/kg, po BID for 46 days relative to control. The format is functional.
The test system of assay [11] is Mus musculus. Kind of assay: Disease modifying capacity in mouse model of transfusion-independent beta-thalassemia intermedia assessed as decrease in leukocyte counts level at 20 mg/kg, po BID for 46 days relative to control. The arrangement: scale not given: the % may be the effect or the level left. The assay is classed as functional.
Assay [12] deals with Mus musculus. As to the kind of experiment: Prevention of iron overload in beta2-microglobulin deficient female mouse assessed as reduction in [58Fe] liver iron accumulation at 60 mg/kg, po BID pre-dosed followed by exposure to iron-containing water and same regime was repeated for 14 days relative to control. The format is functional. More on the design: scale not given: the % may be the effect or the level left.

For assay [13], the system named is Mus musculus. Kind of assay: Prevention of iron overload in beta2-microglobulin deficient male mouse assessed as increase in spleen iron accumulation at 60 mg/kg, po BID pre-dosed followed by exposure to iron-containing water and same regime was repeated for 14 days relative to control. The format is functional.
Assay [14] relates to Rattus norvegicus. As to the kind of experiment: Prevention of iron absorption in anemic Wistar rat model of iron absorption assessed as inhibition of increase in serum iron at 100 mg/kg, po pre-dosed 1 hr before ferrous sulfate dosing and measured 3 hours after iron dosing. The assay is classed as functional.
Assay [15] has as its system Mus musculus. Kind of assay: Disease modifying capacity in mouse model of transfusion-independent beta-thalassemia intermedia assessed as increase in blood erythrocyte counts at 60 mg/kg, po BID for 46 days relative to control. The format is functional.
The subject of assay [16] is Mus musculus. Kind of assay: Correction of anemia in mouse model of transfusion-independent beta-thalassemia intermedia assessed as hemoglobin levels at 60 mg/kg, po BID for 46 days and measured at day 20 to 48 (reference value: 70 to 80 g/L). The format is functional.
Assay [17] deals with Mus musculus. As to the kind of experiment: Induction of hypoferremia in wild type C57BL/6 mouse assessed as decrease in serum iron levels at 10 mg/kg, po measured after 3 hrs post dose. The format is functional. The arrangement: scale not given: the % may be the effect or the level left.
Assay [18] deals with Mus musculus. Kind of assay: Disease modifying capacity in mouse model of transfusion-independent beta-thalassemia intermedia assessed as decrease in [58Fe] spleen iron content at 60 mg/kg, po BID for 46 days relative to control. The format is functional. The arrangement: scale not given: the % may be the effect or the level left.
Assay [19] has as its system Rattus norvegicus. As to the kind of experiment: Prevention of iron absorption in anemic Wistar rat model of iron absorption assessed as inhibition of increase in serum iron at 30 mg/kg, po pre-dosed 1 hr before ferrous sulfate dosing and measured 3 hours after iron dosing. The format is functional.
Assay [20] concerns Mus musculus. Kind of assay: Disease modifying capacity in mouse model of transfusion-independent beta-thalassemia intermedia assessed as increase in hematocrit levels at 20 mg/kg, po BID for 46 days relative to control. The assay is classed as functional.
The subject of assay [21] is Mus musculus. As to the kind of experiment: Disease modifying capacity in mouse model of transfusion-independent beta-thalassemia intermedia assessed as decrease in blood reticulocyte counts at 60 mg/kg, po BID for 46 days relative to control. The format is functional. More on the design: scale not given: the % may be the effect or the level left.
In assay [22] the target is T1, Ferroportin (Mus musculus). Kind of assay: Inhibition of ferroportin in mouse J774 cells assessed as induce ferroportin ubiquitination and degradation at […] incubated for 10 mins by immunoprecipitation assay. The assay is classed as cell-based.
Assay [23] deals with Mus musculus. As to the kind of experiment: Prevention of hyperferremia in iron overloaded beta2-microglobulin deficient female mouse assessed as reduction in serum iron level at 60 mg/kg, po measured after 1 hr relative to control. The assay is classed as functional. More on the design: scale not given: the % may be the effect or the level left.
Assay [24] concerns Mus musculus. Kind of assay: Prevention of hyperferremia in iron overloaded beta2-microglobulin deficient mouse assessed as reduction in serum iron level at 50 mg/kg, po measured after 3 hrs relative to control. The assay is classed as functional, organism-based.
The subject of assay [25] is Mus musculus. As to the kind of experiment: Disease modifying capacity in mouse model of transfusion-independent beta-thalassemia intermedia assessed as increase in hematocrit levels at 60 mg/kg, po BID for 46 days relative to control. The assay is classed as functional.
In assay [26] the test system is Mus musculus. As to the kind of experiment: Disease modifying capacity in mouse model of transfusion-independent beta-thalassemia intermedia assessed as decrease in [58Fe] spleen iron content at 20 mg/kg, po BID for 46 days relative to control. The assay is classed as functional. More on the design: scale not given: the % may be the effect or the level left.
The test system of assay [27] is Mus musculus. Kind of assay: Induction of hypoferremia in wild type C57BL/6 mouse assessed as decrease in serum iron levels at 100 mg/kg, po measured after 3 hrs post dose. The assay is classed as functional. More on the design: scale not given: the % may be the effect or the level left.
The subject of assay [28] is Mus musculus. Kind of assay: Prevention of iron overload in beta2-microglobulin deficient female mouse assessed as reduction in total liver iron accumulation at 60 mg/kg, po BID pre-dosed followed by exposure to iron-containing water and same regime was repeated for 14 days relative to control. The assay is classed as functional. More on the design: scale not given: the % may be the effect or the level left.

Assay [29] relates to Mus musculus. Kind of assay: Prevention of iron overload in beta2-microglobulin deficient male mouse assessed as reduction in total liver iron accumulation at 60 mg/kg, po BID pre-dosed followed by exposure to iron-containing water and same regime was repeated for 14 days relative to control. The format is functional. More on the design: scale not given: the % may be the effect or the level left.

The test system of assay [30] is Mus musculus. Kind of assay: Prevention of iron overload in beta2-microglobulin deficient female mouse assessed as increase in spleen iron accumulation at 60 mg/kg, po BID pre-dosed followed by exposure to iron-containing water and same regime was repeated for 14 days relative to control. The format is functional.
Assay [31] deals with T2, Ferroportin (Mus musculus, UniProt Q9JHI9).
T2 sequence (Q9JHI9 whole entry): T1 sequence (whole entry)
Kind of assay: Inhibition of ferroportin in mouse J774 cells assessed as reduction in binding of hepcidin to ferroportin pre-incubated for 15 mins before TMR-hepcidin addition and further incubated for 2 hrs by fluorescence based hepcidin internalization assay. The format is cell-based.

The target in assay [32] is T3, Ferroportin (Homo sapiens, UniProt Q9NP59).
T3 sequence (Q9NP59 whole entry): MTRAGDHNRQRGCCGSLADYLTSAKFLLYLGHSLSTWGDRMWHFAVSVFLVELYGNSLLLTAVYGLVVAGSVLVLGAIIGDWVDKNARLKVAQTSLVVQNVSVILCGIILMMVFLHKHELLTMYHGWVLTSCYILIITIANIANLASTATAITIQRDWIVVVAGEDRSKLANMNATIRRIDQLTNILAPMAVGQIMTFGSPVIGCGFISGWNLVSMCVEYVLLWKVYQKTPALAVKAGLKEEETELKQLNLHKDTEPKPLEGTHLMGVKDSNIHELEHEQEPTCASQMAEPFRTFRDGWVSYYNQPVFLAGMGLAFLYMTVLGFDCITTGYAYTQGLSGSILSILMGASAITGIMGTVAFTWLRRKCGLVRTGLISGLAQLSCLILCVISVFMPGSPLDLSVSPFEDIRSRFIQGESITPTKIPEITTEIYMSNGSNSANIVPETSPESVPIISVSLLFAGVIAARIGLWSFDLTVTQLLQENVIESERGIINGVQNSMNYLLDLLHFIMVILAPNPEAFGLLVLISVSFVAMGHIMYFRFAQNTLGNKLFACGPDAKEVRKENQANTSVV
Kind of assay: Inhibition of GFP-tagged human ferroportin expressed in HEK293 #354 cells assessed as induction of ferroportin internalization and degradation incubated overnight by FACS assay. The assay is classed as cell-based. Particulars: read-out: EC50 (the source's name). Background: Flow cytometry measures light scatter and fluorescence of single cells or particles in a stream.

Assay [33] has as its target T3, Ferroportin. Kind of assay: Inhibition of GFP-tagged human ferroportin expressed in HEK293 #354 cells assessed as reduction in Fpn-mediated iron efflux incubated overnight by iron regulatory element -driven beta-lactamase reporter gene assay. The format is cell-based. A general note: In a reporter assay the amount or activity of a reporter protein is the signal.

Calls of active or inactive are those of the source. The calls are words filed in the database; no cut-off is given here.

With `Cl.Cl.Cl.O=C(NCc1ncccc1F)c1csc(CCNCc2nc3ccccc3[nH]2)n1`, the Activity in the assay on Mus musculus [1] is 2%; in the assay with Mus musculus [3], 20%; with Mus musculus [5] it was 48%; in the assay with Mus musculus [6], 19%; with Mus musculus [7], 30%; with Mus musculus [8], 81 - 95%. For the same molecule, the Activity in the assay with Mus musculus [9] is on record as 10 - 47%; in the assay with Mus musculus [10] it was 48%; in the assay with Mus musculus [11], 0%; in the assay with Mus musculus [12], 67 - 80%; in the assay on Mus musculus [13] it was 24 - 36%; in the assay with Mus musculus [15], 22%. Moreover, the Activity with Mus musculus [16] is recorded as 13 g/L; in the assay with Mus musculus [17], 10%; with Mus musculus [18], 51%; in the assay on Mus musculus [20] it was 0%; with Mus musculus [21], 43%; in the assay with Mus musculus [23], 32 - 58%. Moreover, the Activity with Mus musculus [25] is reported as 1%; in the assay with Mus musculus [26], 19%; in the assay with Mus musculus [27], 50%; in the assay with Mus musculus [28] it was 66 - 67%; in the assay on Mus musculus [29], 69 - 85%; in the assay with Mus musculus [30], 9 - 85%. Besides, the inhibition entry in assay [2] and in assay [22] was “Active” in each case. Moreover, the inhibition in vivo (in general, how much of the control response was suppressed) at 10 mg/kg in the assay on Rattus norvegicus [4] was found to be 32%. In addition, in the assay with Rattus norvegicus [14], the inhibition in vivo at 100 mg/kg turned out to be 97%. For the same molecule, in the assay with Rattus norvegicus [19], the inhibition in vivo at 30 mg/kg was determined as 53%. Moreover, in the assay with Mus musculus [24], the outcome was Active.

With `O=C(NCc1ncccc1F)c1cn(CCNCCc2nc3ccccc3[nH]2)nn1`, the IC50 (in general, the concentration at which inhibition is half-maximal) at Ferroportin [31] came out at 11 nM. Besides, the DC50 at Ferroportin [32] worked out at 69 nM. Moreover, at Ferroportin [33], the EC50 (in general, the concentration needed to bring the measured effect to its halfway point) was determined as 170 nM.
